Experimental findings from PubChem BioAssay AID248 (DTP/NCI, 2004) are described below.

The experiment relates to L1210 leukemia ip in BDF1 mice, survival T/C. The experiment can be described thus: NCI In Vivo Anticancer Drug Screen. Data for tumor model L1210 Leukemia (intraperitoneal) in B6D2F1 (BDF1) mice. Particulars: endpoint: mean survival time, higher = longer survival. As for the experimental part: The antitumor activity of compounds was measured in mice bearing transplantable tumors. Survival or tumor size were measured and the results are expressed as the measurement made in the treated group (T) divided by the measurement made in the vehicle treated control group (C). The tumor model used in this assay is L1210 Leukemia (intraperitoneal) in B6D2F1 (BDF1) mice

[1] abbreviates: dose: 100.0 mg/kg/injection, schedule: Q01DX009 (ip), vehicle: Klucel (hydroxypropylcellulose) (HPC).
The mark [2] stands for this setting: dose: 100.0 mg/kg/injection, schedule: Q04DX003 (ip), vehicle: Klucel (hydroxypropylcellulose) (HPC).
Where [3] appears, read: dose: 200.0 mg/kg/injection, schedule: Q01DX009 (ip), vehicle: Klucel (hydroxypropylcellulose) (HPC).
Where [4] appears, read: dose: 200.0 mg/kg/injection, schedule: Q04DX003 (ip), vehicle: Klucel (hydroxypropylcellulose) (HPC).
Setting [5] is: dose: 400.0 mg/kg/injection, schedule: Q01DX009 (ip), vehicle: Klucel (hydroxypropylcellulose) (HPC).
[6] abbreviates: dose: 400.0 mg/kg/injection, schedule: Q04DX003 (ip), vehicle: Klucel (hydroxypropylcellulose) (HPC).
[7] abbreviates: dose: 100.0 mg/kg/injection, schedule: Q04DX003 (ip), vehicle: saline.
Where [8] appears, read: dose: 200.0 mg/kg/injection, schedule: Q04DX003 (ip), vehicle: saline.
Where [9] appears, read: dose: 400.0 mg/kg/injection, schedule: Q04DX003 (ip), vehicle: saline.
Setting [10] is: dose: 100.0 mg/kg/injection, schedule: Q04DX002 (ip), vehicle: Klucel (hydroxypropylcellulose) (HPC).
Setting [11] is: dose: 200.0 mg/kg/injection, schedule: Q04DX002 (ip), vehicle: Klucel (hydroxypropylcellulose) (HPC).
Setting [12] is: dose: 400.0 mg/kg/injection, schedule: Q04DX002 (ip), vehicle: Klucel (hydroxypropylcellulose) (HPC).
[13] abbreviates: dose: 100.0 mg/kg/injection, schedule: Q01DX001 (ip), vehicle: saline.
Where [14] appears, read: dose: 200.0 mg/kg/injection, schedule: Q01DX001 (ip), vehicle: saline.

Values joined by “and” are separate entries in the source; they are usually repeats but may differ in a detail not shown here. Equal entries are not always repeated. Toxic doses and inconclusive results are not listed.

On to `Cc1cc(OC(=O)c2ccc(N(C)C)cc2)ccc1[N+](=O)[O-]`, for which the T/C was 95 % of control under setting [1]; 96 % of control under setting [2]; 94 % of control under setting [3]; 91 % of control under setting [4]; 97 % of control under setting [5]; 95 % of control under setting [6].
For `CN(C)Cc1cccc(-c2ccccc2)c1O`, the T/C is 107 % of control (dose: 100.0 mg/kg/injection, schedule: Q01DX009 (ip), vehicle: saline); 95 % of control under setting [2]; 100 % of control under setting [7]; 107 % of control (dose: 200.0 mg/kg/injection, schedule: Q01DX009 (ip), vehicle: saline); 98 % of control under setting [4]; 100 % of control under setting [8]. Further, the T/C is 103 % of control (dose: 400.0 mg/kg/injection, schedule: Q01DX009 (ip), vehicle: saline); 98 % of control under setting [6]; 100 % of control under setting [9].
Regarding `Cn1cnc([N+](=O)[O-])c1[Se]c1nc(N)nc2c1ncn2C1CC(O)C(CO)O1` (stereo not drawn), the T/C is, setting by setting: (dose: 16.5 mg/kg/injection, schedule: Q01DX005 (ip), vehicle: saline) 159 % of control; (dose: 25.0 mg/kg/injection, schedule: Q01DX005 (ip), vehicle: saline) 202 % of control; (dose: 25.0 mg/kg/injection, schedule: Q01DX009 (ip), vehicle: saline) 150 % of control; (dose: 37.5 mg/kg/injection, schedule: Q01DX005 (ip), vehicle: saline) 219 % of control; (dose: 37.5 mg/kg/injection, schedule: Q01DX009 (ip), vehicle: saline) 158 % of control; (dose: 50.0 mg/kg/injection, schedule: Q01DX005 (ip), vehicle: saline) 98 % of control. For the same compound, the T/C runs as follows: (dose: 62.5 mg/kg/injection, schedule: Q01DX005 (ip), vehicle: saline) 117 % of control; (dose: 62.5 mg/kg/injection, schedule: Q01DX009 (ip), vehicle: saline) 105 % of control.
Take `O=C(O)COc1c(F)cc([N+](=O)[O-])cc1[N+](=O)[O-]`: the T/C is 106 % of control under setting [10], 91 % of control under setting [11] and 111 % of control under setting [12].
With `Fc1c(F)c(F)c(P(c2ccccc2)c2ccccc2)c(F)c1F`, the T/C under setting [10] is 95 % of control, the T/C under setting [11] was 95 % of control and the T/C under setting [12] is 111 % of control.
`CCc1ccc(NC(=S)Nc2ccccc2)cc1`: the T/C runs as follows: (dose: 100.0 mg/kg/injection, schedule: Q04DX002 (ip), vehicle: other) 108 % of control; (dose: 200.0 mg/kg/injection, schedule: Q04DX002 (ip), vehicle: other) 90 % of control.
Turning to `COc1ccc(-c2c(CC(=O)O)c3cc(OC)ccc3n2Cc2ccc(Cl)cc2)cc1`, the T/C (dose: 65.0 mg/kg/injection, schedule: Q01DX Z (ip), vehicle: carboxymethylcellulose (CMC)) is 94 % of control; the T/C (dose: 125.0 mg/kg/injection, schedule: Q01DX Z (ip), vehicle: carboxymethylcellulose (CMC)) was 98 % of control; the T/C (dose: 250.0 mg/kg/injection, schedule: Q01DX Z (ip), vehicle: carboxymethylcellulose (CMC)) was 107 % of control; the T/C (dose: 500.0 mg/kg/injection, schedule: Q01DX Z (ip), vehicle: carboxymethylcellulose (CMC)) is 94 % of control; the T/C (dose: 750.0 mg/kg/injection, schedule: Q01DX Z (ip), vehicle: carboxymethylcellulose (CMC)) is 90 % of control; the T/C (dose: 875.0 mg/kg/injection, schedule: Q01DX Z (ip), vehicle: carboxymethylcellulose (CMC)) was 91 % of control.
`Cc1ccc([N+](=O)[O-])cc1NC(=O)N(C(C)C)C1CCCCC1`: the T/C runs as follows: under setting [1], 106 % of control; under setting [3], 95 % of control; under setting [5], 106 % of control.
Regarding `CC(C)(C)C(C)(O)C(=O)O` (stereo not drawn), the T/C by setting is: (dose: 50.0 mg/kg/injection, schedule: Q01DX009 (ip), vehicle: saline with Tween-80) 93 % of control; (dose: 100.0 mg/kg/injection, schedule: Q01DX009 (ip), vehicle: saline with Tween-80) 97 % of control; (dose: 200.0 mg/kg/injection, schedule: Q01DX009 (ip), vehicle: saline with Tween-80) 93 % of control.
Take `Nc1nc(-c2ccccc2)c(CCCOc2ccc(NC(=O)CBr)cc2)c(=O)[nH]1`: the T/C (dose: 50.0 mg/kg/injection, schedule: Q01DX001 (ip), vehicle: carboxymethylcellulose (CMC)) is 91 % of control; the T/C (dose: 100.0 mg/kg/injection, schedule: Q01DX001 (ip), vehicle: carboxymethylcellulose (CMC)) was 96 % of control; the T/C (dose: 200.0 mg/kg/injection, schedule: Q01DX001 (ip), vehicle: carboxymethylcellulose (CMC)) is 86 % of control; the T/C (dose: 400.0 mg/kg/injection, schedule: Q01DX001 (ip), vehicle: carboxymethylcellulose (CMC)) was 86 % of control.
For the compound `CC(C)c1ccccc1O`, the T/C is, setting by setting: under setting [2], 94 % of control; under setting [4], 95 % of control; under setting [6], 90 % of control.
With `O=C(CCCC(=O)NNC(=S)Nc1ccccc1)NNC(=S)Nc1ccccc1`, the T/C (dose: 50.0 mg/kg/injection, schedule: Q01DX001 (ip), vehicle: saline) was 100 % of control; the T/C under setting [13] is 100 % of control; the T/C under setting [14] is 97 % of control; the T/C (dose: 400.0 mg/kg/injection, schedule: Q01DX001 (ip), vehicle: saline) was 100 % of control.
For `O=C(Nc1cc(C(F)(F)F)ccc1Cl)c1ccc(Cl)cc1`, the T/C was 110 % of control under setting [1]; 103 % of control under setting [7]; 94 % of control under setting [3]; 114 % of control under setting [8]; 94 % of control under setting [5]; 106 % of control under setting [9].
As to `CN(C)C(c1ccccc1)C(O)c1ccccc1` (stereo not drawn), the T/C runs as follows: (dose: 75.0 mg/kg/injection, schedule: Q01DX001 (ip), vehicle: saline) 94 % of control and 98 % of control; (dose: 150.0 mg/kg/injection, schedule: Q01DX001 (ip), vehicle: saline) 97 % of control and 102 % of control; (dose: 300.0 mg/kg/injection, schedule: Q01DX001 (ip), vehicle: saline) 89 % of control and 96 % of control.
On to `CN(C)C(=S)Oc1ccccc1[N+](=O)[O-]`, for which the T/C is 100 % of control (dose: 100.0 mg/kg/injection, schedule: Q04DX003 (ip), vehicle: saline with Tween-80); 103 % of control (dose: 200.0 mg/kg/injection, schedule: Q04DX003 (ip), vehicle: saline with Tween-80); 114 % of control (dose: 400.0 mg/kg/injection, schedule: Q04DX003 (ip), vehicle: saline with Tween-80).
Consider `CCCCc1cccc2c1OCO2`, for which the T/C runs as follows: under setting [13], 103 % of control; under setting [14], 103 % of control.
On to `CCCCCCCCCCCCNC(=O)OCCN(CCOC(=O)NCCCCCCCCCCCC)C(=O)COc1ccc(Cl)cc1`, for which the T/C (dose: 100.0 mg/kg/injection, schedule: Q01DX009 (ip), vehicle: other) was 92 % of control; the T/C (dose: 200.0 mg/kg/injection, schedule: Q01DX009 (ip), vehicle: other) is 92 % of control; the T/C (dose: 400.0 mg/kg/injection, schedule: Q01DX009 (ip), vehicle: other) is 96 % of control.
For the compound `COc1ccc2nc3cc(Cl)ccc3c(NC(C)CCCN(CCCl)CCCl)c2c1` (stereo not drawn), the T/C reads like this: (dose: 0.25 mg/kg/injection, schedule: Q01DX009 (ip), vehicle: saline) 108 % of control; (dose: 0.25 mg/kg/injection, schedule: Q04DX003 (ip), vehicle: saline) 115 % of control; (dose: 0.5 mg/kg/injection, schedule: Q01DX009 (ip), vehicle: saline) 117 % of control; (dose: 0.5 mg/kg/injection, schedule: Q04DX003 (ip), vehicle: saline) 100 % of control; (dose: 1.0 mg/kg/injection, schedule: Q01DX009 (ip), vehicle: saline) 104 % of control; (dose: 1.0 mg/kg/injection, schedule: Q04DX003 (ip), vehicle: saline) 109 % of control. The T/C (dose: 2.0 mg/kg/injection, schedule: Q04DX003 (ip), vehicle: saline) is 116 % of control.
